Earlier results in patent US11382851B2, “Hair dye composition containing at least one organic silicon compound, a direct dye and a film forming hydrophobic polymer” (Henkel AG & Co. KGaA, priority 2018, dated 2022).

Details: about 25° C.

Row | solubility in water (in words) | Structure (SMILES) | solubility in water
1 | highly soluble in water | O=C([O-])C1=NN(c2ccc(S(=O)(=O)[O-])cc2)C(=O)C1N=Nc1ccc(S(=O)(=O)[O-])cc1.[Na+].[Na+].[Na+] (centres unmarked) [Acid Yellow 23, trisodium salt of 4,5-dihydro-5-oxo-1-(4-sulfophenyl)-4-((4-sulfophenyl)azo)-1H-pyrazole-3-carboxylic acid] | –
2 | – | O=C([O-])c1c(Cl)c(Cl)c(Cl)c(Cl)c1-c1c2c(Br)cc(=O)c(Br)c-2oc2c(Br)c(O)cc(Br)c12.O=C([O-])c1c(Cl)c(Cl)c(Cl)c(Cl)c1-c1c2c(Br)cc(=O)c(Br)c-2oc2c(Br)c(O)cc(Br)c12.[Na+].[Na+] [Acid Red 92, disodium salt of 3,4,5,6-tetrachloro-2-(1,4,5,8-tetrabromo-6-hydroxy-3-oxoxanthen-9-yl)benzoic acid] | greater than 10 g/L
3 | – | Nc1cc(S(=O)(=O)[O-])cc2cc(S(=O)(=O)[O-])c(N=Nc3ccccc3)c(O)c12.[Na+].[Na+] [Acid Red 33, disodium salt of 5-amino-4-hydroxy-3-(phenylazo)-naphthalene-2,7-disulphonate] | about 2.5 g/L
4 | – | CCN(Cc1cccc(S(=O)(=O)[O-])c1)c1ccc(C(=C2C=CC(=[N+](CC)Cc3cccc(S(=O)(=O)[O-])c3)C=C2)c2ccccc2S(=O)(=O)[O-])cc1.[Na+].[Na+] [Acid Blue 9] | more than 20 % by weight
5 | – | O=S(=O)([O-])c1ccc(N=Nc2c(O)ccc3ccccc23)cc1.[Na+] [Acid Orange 7, sodium salt of 4-[(2-hydroxy-1-naphthyl)azo]benzene sulphonate] | more than 7 g/L
